Our source for the Kd values is ChEMBL document CHEMBL3991601, “The target landscape of clinical kinase drugs” (Science, 2017).

Calls of active or inactive are those of the source.

Test [1] addresses T1, Peroxisomal acyl-coenzyme A oxidase 3 (Homo sapiens, UniProt O15254).
T1 sequence (O15254 whole entry): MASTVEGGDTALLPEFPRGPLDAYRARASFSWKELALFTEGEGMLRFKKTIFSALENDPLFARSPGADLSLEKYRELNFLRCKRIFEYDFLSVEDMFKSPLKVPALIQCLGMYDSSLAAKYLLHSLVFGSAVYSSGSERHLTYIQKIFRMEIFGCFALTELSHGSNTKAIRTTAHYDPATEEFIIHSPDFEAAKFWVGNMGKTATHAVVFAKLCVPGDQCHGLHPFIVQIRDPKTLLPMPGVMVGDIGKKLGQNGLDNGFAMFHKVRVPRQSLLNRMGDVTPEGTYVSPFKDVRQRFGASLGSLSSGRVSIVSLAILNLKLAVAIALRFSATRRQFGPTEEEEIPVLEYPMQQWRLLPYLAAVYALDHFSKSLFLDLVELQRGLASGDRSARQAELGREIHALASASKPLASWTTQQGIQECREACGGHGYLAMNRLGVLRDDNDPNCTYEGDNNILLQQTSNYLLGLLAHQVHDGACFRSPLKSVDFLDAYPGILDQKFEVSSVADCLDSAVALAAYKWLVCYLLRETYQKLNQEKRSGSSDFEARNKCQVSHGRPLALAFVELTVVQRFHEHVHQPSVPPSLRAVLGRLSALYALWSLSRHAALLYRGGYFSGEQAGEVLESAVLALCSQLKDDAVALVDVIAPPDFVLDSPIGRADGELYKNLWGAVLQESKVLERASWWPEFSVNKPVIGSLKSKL

For test [2], the target named is Serine/threonine-protein kinase N2 (Homo sapiens, UniProt Q16513).
The target in test [3] is U5 small nuclear ribonucleoprotein 200 kDa helicase (Homo sapiens, UniProt O75643).
Test [4] deals with BMP-2-inducible protein kinase (Homo sapiens, UniProt Q9NSY1).
In test [5] the target is Tyrosine-protein kinase Lyn (Homo sapiens, UniProt P07948).
For test [6], the target named is Tyrosine-protein kinase SYK (Homo sapiens, UniProt P43405).
For test [7], the target named is T2, Serine/threonine-protein kinase 3 (Homo sapiens, UniProt Q13188).
T2 sequence (Q13188 whole entry): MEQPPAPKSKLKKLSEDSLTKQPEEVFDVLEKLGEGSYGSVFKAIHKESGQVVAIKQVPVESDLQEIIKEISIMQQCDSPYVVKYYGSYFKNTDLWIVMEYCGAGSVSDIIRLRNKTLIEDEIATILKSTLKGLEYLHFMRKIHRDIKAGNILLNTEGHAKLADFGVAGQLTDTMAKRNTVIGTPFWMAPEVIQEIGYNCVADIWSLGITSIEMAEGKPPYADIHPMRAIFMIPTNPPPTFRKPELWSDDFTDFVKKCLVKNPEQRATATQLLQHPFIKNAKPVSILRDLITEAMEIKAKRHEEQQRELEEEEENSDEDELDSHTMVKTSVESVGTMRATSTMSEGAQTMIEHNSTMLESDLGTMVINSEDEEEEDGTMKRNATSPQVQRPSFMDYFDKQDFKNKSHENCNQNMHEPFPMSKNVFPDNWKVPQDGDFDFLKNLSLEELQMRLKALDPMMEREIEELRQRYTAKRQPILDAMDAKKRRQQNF

Test [8] has as its target T3, ATP-dependent RNA helicase DDX1 (Homo sapiens, UniProt Q92499).
T3 sequence (Q92499 whole entry): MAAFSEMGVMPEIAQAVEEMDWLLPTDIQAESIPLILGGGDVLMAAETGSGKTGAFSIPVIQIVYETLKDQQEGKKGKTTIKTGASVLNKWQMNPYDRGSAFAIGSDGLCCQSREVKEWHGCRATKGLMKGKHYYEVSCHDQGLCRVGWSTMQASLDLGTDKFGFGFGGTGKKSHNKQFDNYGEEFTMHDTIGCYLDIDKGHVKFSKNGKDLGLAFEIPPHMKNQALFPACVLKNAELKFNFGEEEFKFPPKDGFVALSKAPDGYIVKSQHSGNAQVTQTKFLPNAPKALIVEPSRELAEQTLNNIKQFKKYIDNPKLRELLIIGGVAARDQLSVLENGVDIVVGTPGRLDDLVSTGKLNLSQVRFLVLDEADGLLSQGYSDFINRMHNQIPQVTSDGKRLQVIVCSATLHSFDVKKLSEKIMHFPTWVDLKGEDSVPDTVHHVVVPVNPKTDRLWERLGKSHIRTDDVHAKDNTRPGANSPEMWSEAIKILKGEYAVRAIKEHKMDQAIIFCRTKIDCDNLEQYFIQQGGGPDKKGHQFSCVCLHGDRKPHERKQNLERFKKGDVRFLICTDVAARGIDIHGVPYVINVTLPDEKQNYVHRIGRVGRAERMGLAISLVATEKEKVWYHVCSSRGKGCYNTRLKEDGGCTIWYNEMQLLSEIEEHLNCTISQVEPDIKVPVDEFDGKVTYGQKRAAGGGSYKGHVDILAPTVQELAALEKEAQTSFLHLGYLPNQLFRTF

Test [9] deals with T4, Beta-adrenergic receptor kinase 1 (Homo sapiens, UniProt P25098).
T4 sequence (P25098 whole entry): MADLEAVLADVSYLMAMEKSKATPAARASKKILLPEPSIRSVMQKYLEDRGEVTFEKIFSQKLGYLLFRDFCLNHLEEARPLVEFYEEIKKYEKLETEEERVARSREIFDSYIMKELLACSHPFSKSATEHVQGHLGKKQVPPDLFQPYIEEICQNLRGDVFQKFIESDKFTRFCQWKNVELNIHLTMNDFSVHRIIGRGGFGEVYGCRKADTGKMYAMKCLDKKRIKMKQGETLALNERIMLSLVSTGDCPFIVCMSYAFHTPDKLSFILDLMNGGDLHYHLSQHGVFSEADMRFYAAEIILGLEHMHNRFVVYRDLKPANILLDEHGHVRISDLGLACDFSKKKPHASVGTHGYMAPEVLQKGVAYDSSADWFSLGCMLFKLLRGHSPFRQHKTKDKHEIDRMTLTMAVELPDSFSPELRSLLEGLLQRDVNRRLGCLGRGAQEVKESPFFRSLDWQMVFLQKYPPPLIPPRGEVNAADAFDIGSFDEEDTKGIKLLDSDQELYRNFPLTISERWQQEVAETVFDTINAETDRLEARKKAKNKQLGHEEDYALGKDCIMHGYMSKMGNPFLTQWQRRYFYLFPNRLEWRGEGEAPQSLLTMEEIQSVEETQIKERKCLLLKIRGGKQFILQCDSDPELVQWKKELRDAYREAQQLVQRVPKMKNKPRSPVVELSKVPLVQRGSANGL

Test [10] concerns the target Tyrosine-protein kinase Fer (Homo sapiens, UniProt P16591).

By Kd is commonly meant a measure of binding affinity in units of concentration.
Note: in the data inactive means no Kd found up to 30 µM.

Chain of Serine/threonine-protein kinase N2 (Q16513 whole entry): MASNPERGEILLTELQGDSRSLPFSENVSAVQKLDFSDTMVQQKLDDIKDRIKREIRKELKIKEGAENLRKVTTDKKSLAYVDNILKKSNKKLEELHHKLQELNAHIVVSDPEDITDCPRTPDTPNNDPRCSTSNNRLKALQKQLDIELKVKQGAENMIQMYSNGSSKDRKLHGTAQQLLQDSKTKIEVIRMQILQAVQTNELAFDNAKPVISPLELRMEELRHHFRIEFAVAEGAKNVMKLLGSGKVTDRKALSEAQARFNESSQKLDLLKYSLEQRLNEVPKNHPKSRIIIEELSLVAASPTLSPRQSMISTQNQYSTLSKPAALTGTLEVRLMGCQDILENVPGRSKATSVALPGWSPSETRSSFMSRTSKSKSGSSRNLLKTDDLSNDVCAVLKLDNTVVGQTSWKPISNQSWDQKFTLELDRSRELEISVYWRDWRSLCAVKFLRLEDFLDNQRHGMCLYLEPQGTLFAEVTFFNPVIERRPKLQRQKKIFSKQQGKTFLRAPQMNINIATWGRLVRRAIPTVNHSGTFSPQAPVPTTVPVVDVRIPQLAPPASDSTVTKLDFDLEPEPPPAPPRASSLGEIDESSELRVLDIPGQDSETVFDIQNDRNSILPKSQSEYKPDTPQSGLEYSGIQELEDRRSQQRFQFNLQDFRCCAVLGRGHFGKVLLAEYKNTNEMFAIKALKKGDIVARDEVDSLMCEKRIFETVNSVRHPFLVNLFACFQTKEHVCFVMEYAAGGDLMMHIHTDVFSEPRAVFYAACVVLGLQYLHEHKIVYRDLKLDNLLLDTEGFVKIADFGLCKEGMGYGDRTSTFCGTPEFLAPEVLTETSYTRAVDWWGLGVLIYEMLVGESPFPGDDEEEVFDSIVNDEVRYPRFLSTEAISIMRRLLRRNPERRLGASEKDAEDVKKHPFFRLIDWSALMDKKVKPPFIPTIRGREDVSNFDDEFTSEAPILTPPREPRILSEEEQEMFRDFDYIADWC
Chain of BMP-2-inducible protein kinase (Q9NSY1 whole entry): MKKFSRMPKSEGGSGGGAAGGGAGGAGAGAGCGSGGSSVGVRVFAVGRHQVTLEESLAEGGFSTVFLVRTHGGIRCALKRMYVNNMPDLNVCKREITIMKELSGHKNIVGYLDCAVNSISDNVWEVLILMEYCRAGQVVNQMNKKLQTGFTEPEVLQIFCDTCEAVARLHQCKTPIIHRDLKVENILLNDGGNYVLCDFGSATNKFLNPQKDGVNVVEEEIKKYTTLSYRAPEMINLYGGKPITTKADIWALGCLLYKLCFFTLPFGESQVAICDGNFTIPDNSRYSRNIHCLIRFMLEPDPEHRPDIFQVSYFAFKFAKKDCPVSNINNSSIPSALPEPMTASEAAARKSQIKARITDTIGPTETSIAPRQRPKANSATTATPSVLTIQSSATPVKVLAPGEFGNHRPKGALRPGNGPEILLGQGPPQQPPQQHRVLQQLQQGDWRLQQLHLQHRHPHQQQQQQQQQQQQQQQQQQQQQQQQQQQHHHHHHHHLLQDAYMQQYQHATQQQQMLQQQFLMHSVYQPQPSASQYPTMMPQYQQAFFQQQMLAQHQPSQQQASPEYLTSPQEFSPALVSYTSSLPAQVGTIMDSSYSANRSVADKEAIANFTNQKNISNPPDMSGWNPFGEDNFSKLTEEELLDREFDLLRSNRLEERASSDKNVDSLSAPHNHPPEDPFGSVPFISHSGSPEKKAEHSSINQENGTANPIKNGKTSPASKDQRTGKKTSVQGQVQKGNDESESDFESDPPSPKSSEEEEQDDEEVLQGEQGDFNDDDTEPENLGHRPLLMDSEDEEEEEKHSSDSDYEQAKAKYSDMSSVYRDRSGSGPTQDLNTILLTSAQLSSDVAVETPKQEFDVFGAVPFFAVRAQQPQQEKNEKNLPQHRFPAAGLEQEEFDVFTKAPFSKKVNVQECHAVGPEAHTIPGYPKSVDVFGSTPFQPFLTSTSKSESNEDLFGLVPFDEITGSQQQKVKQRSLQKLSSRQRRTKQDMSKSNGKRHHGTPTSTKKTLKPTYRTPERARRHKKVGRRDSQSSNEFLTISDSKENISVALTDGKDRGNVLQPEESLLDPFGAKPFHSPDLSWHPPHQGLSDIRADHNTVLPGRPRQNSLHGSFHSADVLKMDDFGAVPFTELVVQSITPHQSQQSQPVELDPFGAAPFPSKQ
Chain of Tyrosine-protein kinase Lyn (P07948 whole entry): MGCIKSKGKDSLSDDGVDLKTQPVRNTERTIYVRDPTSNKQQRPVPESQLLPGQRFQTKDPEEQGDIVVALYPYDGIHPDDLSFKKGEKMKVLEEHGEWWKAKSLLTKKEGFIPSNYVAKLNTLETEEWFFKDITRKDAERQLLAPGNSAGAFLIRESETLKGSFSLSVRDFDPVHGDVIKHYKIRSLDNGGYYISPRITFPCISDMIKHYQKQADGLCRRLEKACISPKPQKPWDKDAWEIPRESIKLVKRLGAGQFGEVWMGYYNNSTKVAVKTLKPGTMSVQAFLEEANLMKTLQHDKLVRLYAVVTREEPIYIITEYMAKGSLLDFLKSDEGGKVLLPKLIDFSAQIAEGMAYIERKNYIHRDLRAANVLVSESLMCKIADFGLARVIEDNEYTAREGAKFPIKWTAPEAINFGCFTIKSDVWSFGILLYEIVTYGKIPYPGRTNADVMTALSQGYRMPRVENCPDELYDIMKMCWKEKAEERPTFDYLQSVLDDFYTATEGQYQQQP
Chain of U5 small nuclear ribonucleoprotein 200 kDa helicase (O75643 whole entry): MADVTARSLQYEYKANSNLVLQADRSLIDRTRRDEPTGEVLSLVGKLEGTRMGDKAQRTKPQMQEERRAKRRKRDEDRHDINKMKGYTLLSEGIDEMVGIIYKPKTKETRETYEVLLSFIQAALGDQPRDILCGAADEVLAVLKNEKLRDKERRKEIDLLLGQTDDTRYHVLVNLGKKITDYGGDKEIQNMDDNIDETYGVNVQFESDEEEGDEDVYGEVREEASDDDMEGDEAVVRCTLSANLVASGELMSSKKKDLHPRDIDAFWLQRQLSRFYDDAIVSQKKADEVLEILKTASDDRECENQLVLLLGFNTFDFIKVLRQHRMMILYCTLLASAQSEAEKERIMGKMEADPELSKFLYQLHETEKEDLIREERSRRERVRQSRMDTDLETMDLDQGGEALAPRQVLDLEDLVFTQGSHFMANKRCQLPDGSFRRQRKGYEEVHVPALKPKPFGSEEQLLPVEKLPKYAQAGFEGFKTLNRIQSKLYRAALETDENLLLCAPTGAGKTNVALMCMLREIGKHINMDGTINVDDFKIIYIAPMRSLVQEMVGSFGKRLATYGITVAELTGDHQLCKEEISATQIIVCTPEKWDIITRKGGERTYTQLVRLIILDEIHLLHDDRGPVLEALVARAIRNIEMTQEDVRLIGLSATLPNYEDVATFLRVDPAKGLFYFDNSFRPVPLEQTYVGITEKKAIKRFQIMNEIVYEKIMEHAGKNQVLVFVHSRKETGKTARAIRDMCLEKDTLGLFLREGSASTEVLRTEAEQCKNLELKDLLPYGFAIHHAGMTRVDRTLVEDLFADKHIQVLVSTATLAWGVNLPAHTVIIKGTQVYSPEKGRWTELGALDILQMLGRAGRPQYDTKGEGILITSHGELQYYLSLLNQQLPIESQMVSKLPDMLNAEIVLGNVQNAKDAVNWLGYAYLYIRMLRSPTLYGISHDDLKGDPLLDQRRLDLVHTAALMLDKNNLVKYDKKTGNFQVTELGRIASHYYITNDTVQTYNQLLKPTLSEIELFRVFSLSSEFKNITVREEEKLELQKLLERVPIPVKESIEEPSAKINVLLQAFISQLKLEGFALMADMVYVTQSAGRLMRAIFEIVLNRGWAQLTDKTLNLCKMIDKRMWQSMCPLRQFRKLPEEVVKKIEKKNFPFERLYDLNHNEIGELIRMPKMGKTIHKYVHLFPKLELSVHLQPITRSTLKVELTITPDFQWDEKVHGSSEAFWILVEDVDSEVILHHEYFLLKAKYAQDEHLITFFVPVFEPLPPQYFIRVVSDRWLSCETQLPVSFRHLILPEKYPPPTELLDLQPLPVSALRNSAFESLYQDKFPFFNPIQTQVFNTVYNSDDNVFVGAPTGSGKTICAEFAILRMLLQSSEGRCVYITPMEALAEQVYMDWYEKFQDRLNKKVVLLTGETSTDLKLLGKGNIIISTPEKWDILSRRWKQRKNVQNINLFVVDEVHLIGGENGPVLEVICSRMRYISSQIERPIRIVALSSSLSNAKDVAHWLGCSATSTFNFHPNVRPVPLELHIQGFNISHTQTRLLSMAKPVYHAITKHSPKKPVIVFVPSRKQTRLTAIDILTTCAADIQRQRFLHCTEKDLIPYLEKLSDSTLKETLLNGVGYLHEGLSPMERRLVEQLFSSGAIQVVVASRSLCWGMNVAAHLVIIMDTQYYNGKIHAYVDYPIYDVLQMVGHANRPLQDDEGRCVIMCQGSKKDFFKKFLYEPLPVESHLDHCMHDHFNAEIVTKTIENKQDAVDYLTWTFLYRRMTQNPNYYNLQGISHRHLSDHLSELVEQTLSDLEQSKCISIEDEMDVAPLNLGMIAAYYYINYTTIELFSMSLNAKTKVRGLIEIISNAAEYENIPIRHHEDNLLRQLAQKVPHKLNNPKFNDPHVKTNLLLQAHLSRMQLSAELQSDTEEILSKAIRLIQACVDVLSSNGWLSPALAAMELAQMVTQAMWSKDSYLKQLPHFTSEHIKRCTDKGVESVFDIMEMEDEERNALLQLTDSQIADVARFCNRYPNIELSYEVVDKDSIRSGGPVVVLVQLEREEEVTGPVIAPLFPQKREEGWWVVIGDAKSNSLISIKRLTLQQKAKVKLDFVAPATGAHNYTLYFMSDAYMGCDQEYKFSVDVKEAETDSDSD

In the case of `CC(=O)c1cnc2ccc(-c3cc(Cl)c(O)c(Cl)c3)nc2c1N[C@H]1CC[C@H](CN(C)C)CC1`, the Kd was > 30 µM (inactive) in test [1]; > 30 µM (inactive) in test [2]; > 30 µM (inactive) in [3]; 0.245 µM (active) in test [4]; 0.121 µM (active) in test [5]; > 30 µM (inactive) in [6]. Moreover, the Kd in [7] is 0.07 µM (active); in test [8], > 30 µM (inactive); in [9] it was > 30 µM (inactive).

With `COc1cc(Nc2ncc3c(n2)-c2ccc(Cl)cc2C(c2c(F)cccc2OC)=NC3)ccc1C(=O)O` [ALISERTIB], the Kd in test [1], in test [3], in [4], in test [5], in [8] and in test [9] was > 30 µM (inactive) in each case.

As to `O=C(Nc1c[nH]nc1-c1nc2cc(CN3CCOCC3)ccc2[nH]1)NC1CC1` [AT-9283], the Kd in [1] is > 30 µM (inactive); in test [2], 2.77 µM (active); in test [3], > 30 µM (inactive); in test [6], 0.116 µM (active); in test [7], > 30 µM (inactive); in test [8], > 30 µM (inactive). For the same compound, the Kd in [9] is > 30 µM (inactive).

As for `CNC(=O)c1ccccc1Sc1ccc2c(/C=C/c3ccccn3)n[nH]c2c1` [AXITINIB], the Kd in test [1], in test [3], in test [8] and in [9] was > 30 µM (inactive) throughout.

For the compound `NC(=O)Nc1cc(-c2cccc(F)c2)sc1C(=O)N[C@H]1CCCNC1` [AZD-7762], the Kd in test [1] was > 30 µM (inactive); in [2], 3.1 µM (active); in test [3], > 30 µM (inactive); in test [4] it was 0.181 µM (active); in [5], 0.48 µM (active); in test [6], 1.48 µM (active). In addition, the Kd in test [8] and in test [9] was > 30 µM (inactive) throughout.

As for `CC(C)(C)c1nc(-c2cccc(NS(=O)(=O)c3c(F)cccc3F)c2F)c(-c2ccnc(N)n2)s1` [DABRAFENIB], the Kd in [1], in [2], in test [3], in test [4], in [10] and in test [6] was > 30 µM (inactive) throughout. For the same compound, the Kd in test [8] and in [9] was > 30 µM (inactive) each time.

Turning to `Cn1cc(C2=C(c3cn(C4CCN(Cc5ccccn5)CC4)c4ccccc34)C(=O)NC2=O)c2ccccc21` [ENZASTAURIN], the Kd in test [1], in [3], in [8] and in test [9] was > 30 µM (inactive) throughout.

With `C[C@@H](Oc1cc(-n2cnc3ccc(CN4CCN(C)CC4)cc32)sc1C(N)=O)c1ccccc1C(F)(F)F` [GSK-461364], the Kd in [1], in [3], in test [8] and in [9] was > 30 µM (inactive) each time.

`O=C(Nc1cc(C(F)(F)F)cc(C(F)(F)F)c1)c1cc(Cl)ccc1O` [IMD-0354]: the Kd in [1], in test [2], in test [3], in test [4], in test [5] and in test [10] was > 30 µM (inactive) in each case. The Kd in [6], in [8] and in test [9] was > 30 µM (inactive) each time.

For `Cc1[nH]c(/C=C2\C(=O)Nc3ccccc32)c(C)c1CCC(=O)O` [ORANTINIB], the Kd in [1] was > 30 µM (inactive); in test [3], > 30 µM (inactive); in test [4], 0.303 µM (active); in test [8], > 30 µM (inactive); in test [9], > 30 µM (inactive).

In the case of `NC(=O)c1c(OCc2c(F)cc(Br)cc2F)nsc1NC(=O)NCCCCN1CCCC1` [OSI-632], the Kd in [1], in [3], in [4] and in test [9] was > 30 µM (inactive) throughout.

Turning to `CC(=O)NCC(=O)N1[C@@H]2CC[C@H]1c1ccc(Nc3ncc(C(F)(F)F)c(NC4CCC4)n3)cc12` [PF-03814735], the Kd in test [1] is > 30 µM (inactive); in test [3], > 30 µM (inactive); in test [4], 0.015 µM (active); in [5], > 30 µM (inactive); in [8], > 30 µM (inactive); in test [9], > 30 µM (inactive).

For `CNC(=O)c1cc(Oc2ccc(NC(=O)Nc3cc(C(C)(C)C)nn3-c3ccc4ncccc4c3)c(F)c2)ccn1` [REBASTINIB], the dissociation constant (Kd) in [1] is 16.1 µM; in test [2], > 30 µM (inactive); in test [3] it was > 30 µM (inactive); in [4], > 30 µM (inactive); in [6], 1.83 µM (active); in test [7], 12.1 µM (active). The Kd in test [8] and in test [9] was > 30 µM (inactive) throughout.

As to `O=C(NOCCO)c1cc(CN2OCCCC2=O)c(F)c(F)c1Nc1ccc(I)cc1F` [RO-4987655], the Kd in test [1], in test [3] and in [8] was > 30 µM (inactive) in each case.

As to `N#CC[C@H](C1CCCC1)n1cc(-c2ncnc3[nH]ccc23)cn1` [RUXOLITINIB], the Kd in test [1], in [3], in [8] and in [9] was > 30 µM (inactive) in each case.
